Laboratory results taken from PubChem BioAssay (NCI).
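All cell lines were grown in 96-well plates and treated with compound for 48 hours. TGI: concentration producing complete growth inhibition.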

Key:
Assay in all cases: growth of human tumour cells (NCI), 48 h
[1] = tested on: UACC-257 melanoma
[2] = tested on: OVCAR-4 ovarian
[3] = tested on: PC-3 prostate
[4] = tested on: SF-268 CNS
[5] = tested on: SNB-75 CNS
[6] = tested on: COLO 205 colon
[7] = tested on: BT-549 breast
[8] = tested on: SN12C renal
[9] = tested on: ACHN renal
[10] = tested on: HCC-2998 colon
[11] = tested on: MCF7 breast
[12] = tested on: MOLT-4 leukemia
[13] = tested on: CCRF-CEM leukemia
[14] = tested on: IGROV1 ovarian
[15] = tested on: SF-295 CNS
[16] = tested on: KM12 colon
[17] = tested on: MDA-MB-435
[18] = tested on: K-562 leukemia
[19] = tested on: T-47D breast
[20] = tested on: HL-60(TB) leukemia
[21] = tested on: UACC-62 melanoma
[22] = tested on: HCT-15 colon
[23] = tested on: NCI-H460 lung
[24] = tested on: TK-10 renal
[25] = tested on: NCI/ADR-RES ovarian
[26] = tested on: NCI-H23 lung
[27] = tested on: HOP-92 NSCLC
[28] = tested on: SW-620 colon
[29] = tested on: A549 NSCLC
[30] = tested on: SF-539 CNS
[31] = tested on: SK-OV-3 ovarian
[32] = tested on: HS 578T breast
[33] = tested on: OVCAR-5 ovarian
[34] = tested on: SR leukemia
[35] = tested on: RPMI-8226 leukemia
[36] = tested on: HOP-62 NSCLC
[37] = tested on: SNB-19 CNS
[38] = tested on: NCI-H226 lung
[39] = tested on: DU-145 prostate
[40] = tested on: EKVX NSCLC
[41] = tested on: MDA-N
[42] = tested on: SK-MEL-28 melanoma
[43] = tested on: RXF 393 renal
[44] = tested on: HT29 colon
[45] = tested on: MALME-3M melanoma
[46] = tested on: MDA-MB-231 breast
[47] = tested on: OVCAR-3 ovarian
[48] = tested on: M14 melanoma
[49] = tested on: 786-0 renal
[50] = tested on: HCT-116 colon
[51] = tested on: OVCAR-8 ovarian
[52] = tested on: U251 CNS
[53] = tested on: SK-MEL-5 melanoma
[54] = tested on: NCI-H522 lung
[55] = tested on: SK-MEL-2 melanoma
[56] = tested on: CAKI-1 renal
[57] = tested on: LOX IMVI melanoma
[58] = tested on: UO-31 renal
[59] = tested on: A498 renal

CCn1c(-c2ccc(OC)cc2)nc2c1C(=O)c1ccccc1C2=O
TGI [1]: > 100 µM
TGI [2]: > 100 µM
TGI [3]: > 100 µM
TGI [4]: > 100 µM
TGI [5]: > 100 µM
TGI [6]: > 100 µM
TGI [7]: > 100 µM
TGI [8]: > 100 µM
TGI [9]: > 100 µM
TGI [10]: > 100 µM
TGI [11]: > 100 µM
TGI [12]: > 100 µM
TGI [13]: > 100 µM
TGI [14]: > 100 µM
TGI [15]: > 100 µM
TGI [16]: > 100 µM
TGI [17]: > 100 µM
TGI [18]: > 100 µM
TGI [19]: > 100 µM
TGI [20]: > 100 µM
TGI [21]: > 100 µM
TGI [22]: > 100 µM
TGI [23]: > 100 µM
TGI [24]: > 100 µM
TGI [25]: > 100 µM
TGI [26]: > 100 µM
TGI [27]: > 100 µM
TGI [28]: > 100 µM
TGI [29]: > 100 µM
TGI [30]: > 100 µM
TGI [31]: > 100 µM
TGI [32]: > 100 µM
TGI [33]: > 100 µM
TGI [34]: > 100 µM
TGI [35]: > 100 µM
TGI [36]: > 100 µM
TGI [37]: > 100 µM
TGI [38]: > 100 µM
TGI [39]: > 100 µM
TGI [40]: > 100 µM
TGI [41]: > 100 µM
TGI [42]: > 100 µM
TGI [43]: > 100 µM
TGI [44]: > 100 µM
TGI [45]: > 100 µM
TGI [46]: > 100 µM
TGI [47]: > 100 µM
TGI [48]: > 100 µM
TGI [49]: > 100 µM
TGI [50]: > 100 µM
TGI [51]: > 100 µM
TGI [52]: > 100 µM
TGI [53]: > 100 µM
TGI [54]: > 100 µM

O=C1C(C(c2ccc([N+](=O)[O-])cc2)N2CCOCC2)=C(O)C(c2ccccc2)N1c1ccccc1 (configuration not stated)
TGI [55]: > 10 µM
TGI [56]: > 10 µM
TGI [1]: > 10 µM
TGI [2]: > 10 µM
TGI [3]: > 10 µM
TGI [4]: > 10 µM
TGI [5]: > 10 µM
TGI [6]: > 10 µM
TGI [7]: > 10 µM
TGI [8]: > 10 µM
TGI [9]: > 10 µM
TGI [10]: > 10 µM
TGI [11]: > 10 µM
TGI [12]: > 10 µM
TGI [13]: > 10 µM
TGI [14]: > 10 µM
TGI [15]: > 10 µM
TGI [16]: > 10 µM
TGI [17]: > 10 µM
TGI [18]: > 10 µM
TGI [19]: > 10 µM
TGI [20]: > 10 µM
TGI [21]: > 10 µM
TGI [22]: > 10 µM
TGI [23]: > 10 µM
TGI [24]: > 10 µM
TGI [57]: > 10 µM
TGI [25]: > 10 µM
TGI [26]: > 10 µM
TGI [58]: > 10 µM
TGI [28]: > 10 µM
TGI [29]: > 10 µM
TGI [30]: > 10 µM
TGI [31]: > 10 µM
TGI [32]: > 10 µM
TGI [33]: > 10 µM
TGI [34]: > 10 µM
TGI [35]: > 10 µM
TGI [36]: > 10 µM
TGI [37]: > 10 µM
TGI [38]: > 10 µM
TGI [39]: > 10 µM
TGI [40]: > 10 µM
TGI [41]: > 10 µM
TGI [42]: > 10 µM
TGI [43]: > 10 µM
TGI [44]: > 10 µM
TGI [45]: > 10 µM
TGI [46]: > 10 µM
TGI [47]: > 10 µM
TGI [59]: > 10 µM
TGI [48]: > 10 µM
TGI [49]: > 10 µM
TGI [50]: > 10 µM
TGI [51]: > 10 µM
TGI [52]: > 10 µM
TGI [53]: > 10 µM
TGI [54]: > 10 µM
